These compounds were tested against cdc2/cyclinB (assay: cdc2/cyclinB kinase inhibition). Conditions: not given.
Assay type: biochemical

Compound	IC50 [nM]
CC(C)n1cnc2c(Nc3ccccc3Cl)nc(NCCO)nc21 [NG-43]	4300
CC(C)n1cnc2c(Nc3ccccc3)nc(NCCO)nc21 [NG-42]	4300
COc1ccccc1Nc1nc(NCCO)nc2c1ncn2C(C)C [NG-46]	9000
CC(C)n1cnc2c(Nc3cccc(Cl)c3)nc(N[C@H](CO)C(C)(C)C)nc21 [NG-61]	2300
CC(C)n1cnc2c(Nc3cccc(F)c3)nc(NCCO)nc21 [NG-65]	400
COc1ccc(CNc2nc(N(CCO)Cc3ccccc3)nc3c2ncn3C(C)C)cc1 [NG-49]	2800
CC(C)n1cnc2c(Nc3ccccc3C(F)(F)F)nc(NCCO)nc21 [NG-53]	10000
CC(C)n1cnc2c(Nc3ccc4ccccc4c3)nc(NCCO)nc21 [NG-47]	430
CCC(C)[C@@H](CO)Nc1nc(Nc2cccc(Cl)c2)c2ncn(C(C)C)c2n1 (stereo partly shown) [NG-62]	500
CC(C)n1cnc2c(Nc3cccc(Cl)c3)nc(NCCO)nc21 [NG-52]	220
COc1ccc(CNc2nc(N(CC(C)O)CC(C)O)nc3c2ncn3C(C)C)cc1 (stereo not shown) [NG-16]	240
CC(C)n1cnc2c(Nc3cccc(Br)c3)nc(NCCO)nc21 [NG-45]	270
CC(C)[C@H](CO)Nc1nc(Nc2ccc(O)c(C(=O)O)c2)c2ncn(C(C)C)c2n1 [NG-94]	~100
CC(C)n1cnc2c(Nc3ccc(Cl)cc3Cl)nc(NCCO)nc21 [NG-54]	2700
COc1ccc(CNc2nc(NCC(O)c3ccccc3)nc3c2ncn3C(C)C)cc1 (stereo not shown) [NG-50]	2800
CC(C)[C@H](CO)Nc1nc(Nc2cc(N)cc(Cl)c2)c2ncn(C(C)C)c2n1 [NG-97]	30
CC(C)[C@H](CO)Nc1nc(Nc2ccc(Cl)c(C(=O)O)c2)c2ncn(C(C)C)c2n1 [NG-96]	~30
CC(C)n1cnc2c(Nc3cccc(C(F)(F)F)c3)nc(NCCO)nc21 [NG-51]	420
CC(C)n1cnc2c(Nc3cccc(Cl)c3)nc(N[C@H](CO)c3ccccc3)nc21 [NG-59]	800
COc1ccc(CNc2nc(N[C@@H](CO)CC(C)C)nc3c2ncn3C(C)C)cc1 [NG-36]	100
CC(C)[C@H](CO)Nc1nc(Nc2ccc(Cl)c(N)c2)c2ncn(C(C)C)c2n1 [NG-98]	30
CC(C)C(CO)Nc1nc(Nc2cc(Cl)cc(Cl)c2)c2ncn(C(C)C)c2n1 (stereo not shown) [NG-57]	400

The compounds below were run against erk1 (Homo sapiens, UniProt P27361) (assay: erk1 kinase inhibition). Conditions: read-out: IC50 (additional kinases) erk1.
Assay type: biochemical

Chain of erk1 (P27361 whole entry, species assumed): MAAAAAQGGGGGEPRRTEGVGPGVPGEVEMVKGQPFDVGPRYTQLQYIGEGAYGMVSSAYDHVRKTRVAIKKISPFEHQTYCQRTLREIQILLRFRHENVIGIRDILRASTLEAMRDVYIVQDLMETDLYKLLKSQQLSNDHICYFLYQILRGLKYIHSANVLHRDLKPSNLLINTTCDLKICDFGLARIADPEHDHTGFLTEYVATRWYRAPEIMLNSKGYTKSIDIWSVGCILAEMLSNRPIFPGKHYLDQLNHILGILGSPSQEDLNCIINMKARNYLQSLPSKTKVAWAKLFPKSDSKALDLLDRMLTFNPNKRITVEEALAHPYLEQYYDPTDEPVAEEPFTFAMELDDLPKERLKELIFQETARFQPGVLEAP

Compound	IC50 [nM]
COc1ccc(CNc2nc(N(CC(C)O)CC(C)O)nc3c2ncn3C(C)C)cc1 (stereo not shown) [NG-16]	50000
CC[C@H](CO)Nc1nc(NCc2ccc(OC)cc2)c2ncn(C(C)C)c2n1 [NG-33]	> 10000
COc1ccc(CNc2nc(N[C@@H](CO)CC(C)C)nc3c2ncn3C(C)C)cc1 [NG-36]	> 10000

— US6803371B2, “Purine inhibitors of protein kinases, G proteins and polymerases” (The Regents of the University of California, priority 1997, dated 2004)
